Patent publication US20230159899A1, “DEVICES AND METHODS FOR SIMULATING A FUNCTION OF LIVER TISSUE” (EMULATE, INC., priority 2015, published 2023)
Where two headings read alike, the source gives them in different places.

Columns and labels:
[1] = reported in literature; cited from earlier work
[2] = system: Na(+)-dependent taurocholate uptake; details: rat suspended hepatocytes; read-out: IC(50), inhibition of Na(+)-dependent taurocholate uptake; cited from earlier work
[3] = target: T1, rat Na(+)-dependent taurocholate co-transporting polypeptide (Ntcp/Slc10a1) (Rattus norvegicus, UniProt P26435); details: rat Ntcp/Slc10a1 expressed in HEK293 cells; read-out: IC(50), inhibition of taurocholate uptake; cited from earlier work
T1 sequence (P26435 1-362): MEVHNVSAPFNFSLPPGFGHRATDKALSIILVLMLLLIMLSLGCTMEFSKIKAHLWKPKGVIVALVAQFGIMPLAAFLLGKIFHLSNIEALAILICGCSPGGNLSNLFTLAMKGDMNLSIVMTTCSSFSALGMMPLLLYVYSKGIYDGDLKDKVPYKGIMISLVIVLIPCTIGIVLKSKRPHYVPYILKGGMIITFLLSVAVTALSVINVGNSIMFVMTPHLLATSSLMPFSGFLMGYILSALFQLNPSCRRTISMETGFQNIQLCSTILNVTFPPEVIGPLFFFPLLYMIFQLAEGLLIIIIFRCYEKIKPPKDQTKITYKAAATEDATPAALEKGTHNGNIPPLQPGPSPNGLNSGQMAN

[4] = system: RAT Liver-on-Chip; experiment: Bosentan toxicity as LDH leakage, RAT Liver-on-Chip; format: cell-based; details: 1.2-100 μM
Description: (§1) FIGS. 75A-75C provides graphs measuring Bosentan Toxicity as a percentage of LDH Leakage in three different species of microfluidic chips: FIG. 75A “RAT Liver-on-Chip” (7 days of treatment); FIG. 75B microfluidic “DOG Liver-on-Chip” (7 days of treatment); and FIG. 75C microfluidic “Human Liver-on-Chip” (3 days of treatment) increasing concentrations from 1.2 (1.3 for human)-100 μM. Samples were removed from the hepatocyte channel and the LSEC channel of the microfluidic chip with a sample from a plate sandwich culture shown for comparison.
(§2) An exemplary tool compound was chosen for a pilot study, as an exemplary step 1: Bosentan (Tracleer), see, FIG. 74 for an exemplary chemical structure. […] Step 2: RAT and DOG “Liver-on-Chip” models were chosen for comparison to a HUMAN “Liver-on-Chip”. Step 3: A concentration range of 1.2 to 100 μM Bosentan was selected. Step 4, a first type of mechanism, e.g. exemplary LDH leakage was chosen for analysis of toxicity. FIG. 75 provides graphs measuring Bosentan Toxicity as a percentage of LDH Leakage in three different species of microfluidic chips: A) “RAT Liver-on-Chip” (7 days of treatment); B) microfluidic “DOG Liver-on-Chip” (7 days of treatment); and C) microfluidic “Human Liver-on-Chip” (3 days of treatment) increasing concentrations from 1.2 (1.3 for human)-100 μM. […]

[5] = system: hepatocytes with liver sinusoidal endothelial cells (LSEC); experiment: Modified Human Liver-on-Chip with LSEC only, hepatocytes only and co-culture areas, visual observation; format: cell-based; details: Bosentan at 11 μM, 3 days of treatment
From the text: (§3) One contemplated difference between unsuccessful modeling experiments i.e. measuring cell death by LDH release, as in FIG. 75 vs. successful modeling measuring reduced cell function by a reduction in albumin secretion, as in FIG. 76, was potential cross-talk (e.g. exchange of secretions or physical cell-cell interactions) between Hepatocyte and liver sinusoidal endothelial cells (LSEC) after treatment with Bosentan. Therefore, a Human Liver-on-Chip was designed and seeded with areas of LSEC only and hepatocytes only, allowing a co-culture area in between, see, micrograph in FIG. 77. […] Therefore, co-culturing with LSEC increases hepatocytes sensitivity to Bosentan in these microfluidic HUMAN Liver-on-Chips.

[6] = system: Human Liver-on-Chip; format: cell-based; details: 3 days
Description: as §1, §2

[7] = system: DOG Liver-on-Chip; format: cell-based; details: 7 days
Description: as §1, §2

[8] = system: Na(+)-dependent taurocholate uptake; details: human suspended hepatocytes; read-out: IC(50), inhibition of Na(+)-dependent taurocholate uptake; cited from earlier work
[9] = clinical trials, cited from earlier work
[10] = target: T2, human NTCP (SLC10A1) (Homo sapiens, UniProt Q14973); details: human NTCP (SLC10A1) expressed in HEK293 cells; read-out: IC(50), inhibition of taurocholate uptake; cited from earlier work
T2 sequence (Q14973 1-349): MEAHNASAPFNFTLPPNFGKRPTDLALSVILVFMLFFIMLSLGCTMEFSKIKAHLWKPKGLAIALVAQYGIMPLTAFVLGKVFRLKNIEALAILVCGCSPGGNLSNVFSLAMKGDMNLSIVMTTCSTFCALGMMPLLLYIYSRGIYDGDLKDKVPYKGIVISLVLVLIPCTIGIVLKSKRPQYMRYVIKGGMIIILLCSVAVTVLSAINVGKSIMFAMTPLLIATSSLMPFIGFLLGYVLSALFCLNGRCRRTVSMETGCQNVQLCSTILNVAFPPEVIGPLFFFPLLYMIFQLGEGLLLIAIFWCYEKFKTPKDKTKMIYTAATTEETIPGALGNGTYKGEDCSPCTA

[11] = system: DOG Liver-on-Chip; experiment: Bosentan toxicity as albumin secretion, DOG Liver-on-Chip; format: cell-based
Description: (§4) FIGS. 76A-76C provides graphs measuring Bosentan Toxicity as Albumin Secretion in three different species of microfluidic chips: FIG. 76A “RAT Liver-on-Chip”; FIG. 76B “DOG Liver-on-Chip”; increasing concentrations from 1.2-100 μM and FIG. 76C “Human Liver-on-Chip” increasing concentrations from 0.4-100 μM. Samples were removed from the microfluidic chip with a sample from a plate sandwich culture shown for comparison.
(§5) Thus, for step 4, one exemplary toxicity mechanism is a loss of albumin secretion.

[12] = system: Human Liver-on-Chip; format: cell-based
Description: as §4, §5, §3

[13] = system: Human Liver-on-Chip; format: in vitro ADME
From the text: FIG. 83 provides a graph measuring a low clearance compound Antipyrine in a Clearance assay in microfluidic “Human Liver-on-Chip” under continuous flow.
FIG. 84 provides a graph measuring low clearance compound Antipyrine in a Clearance assay in microfluidic “Human Liver-on-Chip” under non-dynamic conditions.
Each drug molecule has a limited time to interact with hepatocytes, i.e. an interaction time. Under conditions of flow, the interaction time is reduced. However the interaction time can be increased by either using non-dynamic conditions (absence of flow) or by reticulating the media containing the drug. The present invention contemplates both embodiments for increasing interaction time, and in particular for low clearance compounds. […] See, FIGS. 83-84.
Under dynamic conditions: Antipyrine medium removed from the Liver-on-Chip at 5 sample points over 10 hours of incubation, then again after 25 hours of incubation, was tested for an amount (%) of remaining compound. After 25 hours, around 90% of the compound remained in the media. See, FIG. 83.
Under non-dynamic conditions: 50 μl (total) of Antipyrine medium in the Liver-on-Chip was tested for an amount (%) of remaining compound, after incubation for 24 hours and 48 hours. At 48 hours, around 100% of the compound appeared to be present in the media. […]

[14] = system: Rat Stellate Cells; experiment: Stellate cell activation in quadruple-culture Rat Liver-on-Chip (α-SMA staining); format: cell-based; details: 1 ng/ml for 48 hours, from Day 7
Description: FIGS. 82A-82B provides a micrograph of isolated Rat Stellate Cells that were seeded within a microfluidic Quadruple-culture “Rat Liver-on-Chip”. […] DAPI (blue) stained nuclei.
A quadruple-culture microfluidic Rat Liver-on-Chip at Day 7 has viable Stellate cells.

What does the source list for `COc1ccccc1Oc1c(NS(=O)(=O)c2ccc(C(C)(C)C)cc2)nc(-c2ncccn2)nc1OCCO` [Bosentan]?
hepatotoxicity in treated rats [1]: do not develop hepatotoxicity; IC50 [2]: 5.4 µM; IC50 [3]: 0.71 µM; LDH leakage, hepatocytes and LSEC channel of chip ([4]; 7 days of treatment): no toxicity effects; LDH toxicity, rat hepatocytes on conventional plates ([4]; plate sandwich culture): does not show LDH toxicity; hepatocyte degradation, LSEC area or area of hepatocytes alone [5]: not in either the LSEC area or area of hepatocytes alone; visual observation, co-culture area of hepatocytes with LSEC [5]: significant hepatocyte degradation; LDH leakage: concentration at which hepatocytes on plates showed an effect [6]: 100 µM; concentration at which LDH effect was observed (the same as for loss of albumin secretion) [6]: either 3.7 μM or 11.1 μM; LDH leakage: dose up to which there was a lack of effects [7]: 100 µM; IC50 [8]: 30 µM; elevations in serum Alanine aminotransferase (ALT) ([9]; patients who developed hepatotoxicity): greater than 3 fold; human patients treated who developed hepatotoxicity [9]: 8-18%; IC50 [10]: 24 µM; albumin secretion by DOG hepatocytes ([11]; 11.1 μM Bosentan): relatively constant amounts of albumin; dose response associated with albumin secretion (loss of albumin secretion) ([11]; 1.2-100 μM, fluid samples from the upper chamber): clear dose response; dose response of albumin secretion [12]: clear dose response

Which “amount of remaining compound in the media” value ([13]; dynamic conditions (continuous flow), after 25 hours) does the source give for `Cc1cc(=O)n(-c2ccccc2)n1C` [Antipyrine] here?
Its value is “around 90%”.

What about the “amount of remaining compound in the media” value ([13]; non-dynamic conditions, 50 μl medium, at 48 hours) of the same molecule?
The value was “around 100%”.

Which “expression of activation marker Alpha-smooth muscle actin (α-SMA)” value [14] does the source give for “TGFβ-1: factor used to activate Stellate cells” here?
The value was “increased (strong) expression”.
